{"source": "patent US9873680B2", "about": "(Gilead Sciences, Inc., priority 2014, dated 2018)", "key": {"[1]": {"tested_on": "HIV-IIIb", "assay": "Test A: Antiviral Assay in MT4 Cells", "assay_type": "cell-based, HIV-1", "details": "for inhibition at 2 µM: 2 μM drug concentration, read-out: Response at 2 μM (percent inhibition of virus-induced cell killing)", "protocol": "Test A: Antiviral Assay in MT4 Cells\nMT-4 cells were next mixed with HIV-IIIb at an m.o.i of 0.003 for 1 hour, after which time 35 μL of virus/cell mixture (2000 cells) was immediately added to each well containing 40 μL of diluted compound. The plates were then incubated at 37° C. for 5 days. After 5 days of incubation, 25 μl of 2× concentrated CellTiter-Glo™ Reagent (catalog #G7571, Promega Biosciences, Inc., Madison, Wis.) was added to each well containing MT-4 cells. Cell lysis was carried out by incubating at room temperature for 10 min and then chemiluminescence was read."}, "[2]": {"assay": "Test B: Cytotoxicity Assay", "assay_type": "cell-based", "details": "human, uninfected MT-4 cells, CellTiter-Glo", "protocol": "Test B: Cytotoxicity Assay Compound cytotoxicity and the corresponding CC50 values was determined using the same protocol as described in the antiviral assay (Test A) except that uninfected cells were used."}, "[3]": {"details": "Human immunodeficiency virus 1, MT4, 120 h, 0.2 μM drug concentration, MT-4 cells infected with HIV-IIIb, 5 days, values normalized to 100%, average over time, read-out: % inhibition at 0.2 μM (percent inhibition of virus-induced cell killing)"}, "[4]": {"details": "Human immunodeficiency virus 1, IIIB, MT4, 0.2 μM drug concentration, comparison with previously published compounds, read-out: Response at 0.2 μM (percent inhibition of virus-induced cell killing)"}, "[5]": {"details": "Human immunodeficiency virus 1, IIIB, MT4, comparison with previously published compounds"}, "[6]": {"details": "Human immunodeficiency virus 1, IIIB, MT4, 120 h, read-out: % inhibition at 0.2 μM (percent inhibition of virus-induced cell killing)"}}, "note": "Structures can show the parent of a compound that is named as a salt. Where two headings read alike, the source gives them in different places."}
{"smiles": "O=C(Cn1nc(C(F)F)c2c1C(F)(F)CCC2(F)F)N[C@@H](Cc1cc(F)cc(F)c1)c1nc(C#Cc2cncnc2)ccc1-c1ccc2c(c1)C(=O)NC2", "note": "[Compound 1J, (S)-2-(3-(difluoromethyl)-4,4,7,7-tetrafluoro-4,5,6,7-tetrahydro-1H-indazol-1-yl)-N-(2-(3,5-difluorophenyl)-1-(3-(3-oxoisoindolin-5-yl)-6-(pyrimidin-5-ylethynyl)pyridin-2-yl)ethyl)acetamidehydrochloride]", "values": [{"measurement": "inhibition at 0.2 µM", "setting": "[1]; [3]", "result": 81, "unit": "%"}, {"measurement": "CC50 at 5 days", "setting": "[2]", "result": "> 53.2", "unit": "µM"}]}
{"smiles": "O=C(Cn1nc(C(F)F)c2c1C(F)(F)CCC2(F)F)N[C@@H](Cc1cc(F)cc(F)c1)c1ncc(C#CC2CC2)cc1-c1ccc2c(c1)C(=O)NC2", "note": "[Compound 2G, (S)—N-(1-(5-(cyclopropylethynyl)-3-(3-oxoisoindolin-5-yl)pyridin-2-yl)-2-(3,5-difluorophenyl)ethyl)-2-(3-(difluoromethyl)-4,4,7,7-tetrafluoro-4,5,6,7-tetrahydro-1H-indazol-1-yl)acetamide]", "values": [{"measurement": "inhibition at 0.2 µM", "setting": "[1]; [4]", "result": 0, "unit": "%"}, {"measurement": "inhibition at 2 µM", "setting": "[1]; [5]", "result": 6, "unit": "%"}, {"measurement": "inhibition at 0.2 µM", "setting": "[1]; [3]", "result": 0, "unit": "%"}, {"measurement": "CC50 at 5 days", "setting": "[2]", "result": 38.4, "unit": "µM"}]}
{"smiles": "Cc1cc2ncn(CC(=O)N[C@@H](Cc3cc(F)cc(F)c3)c3nc(C#CC4(O)CCOCC4)ccc3-c3ccc4n[nH]c(=O)n4c3C)c2cc1C", "note": "[Compound 3D, (S)—N-(2-(3,5-difluorophenyl)-1-(6-((4-hydroxytetrahydro-2H-pyran-4-yl)ethynyl)-3-(5-methyl-3-oxo-2,3-dihydro-[1,2,4]triazolo[4,3-a]pyridin-6-yl)pyridin-2-yl)ethyl)-2-(5,6-dimethyl-1H-benzo[d]imidazol-1-yl)acetamide]", "values": [{"measurement": "inhibition at 0.2 µM", "setting": "[1]; [3]", "result": 91, "unit": "%"}, {"measurement": "CC50 at 5 days", "setting": "[2]", "result": 31.6, "unit": "µM"}]}
{"smiles": "O=C(Cn1nc(C(F)F)c2c1C(F)(F)CCC2(F)F)N[C@@H](Cc1cc(F)cc(F)c1)c1nc(C#Cc2cnc3[nH]ccc3c2)ccc1-c1cnc2[nH]ccc2c1", "note": "[Compound 4C, (S)—N-(1-(6-((1H-pyrrolo[2,3-b]pyridin-5-yl)ethynyl)-3-(1H-pyrrolo[2,3-b]pyridin-5-yl)pyridin-2-yl)-2-(3,5-difluorophenyl)ethyl)-2-(3-(difluoromethyl)-4,4,7,7-tetrafluoro-4,5,6,7-tetrahydro-1H-indazol-1-yl)acetamide]", "values": [{"measurement": "inhibition at 0.2 µM", "setting": "[1]; [3]", "result": 0, "unit": "%"}, {"measurement": "CC50 at 5 days", "setting": "[2]", "result": 1.27, "unit": "µM"}]}
{"smiles": "O=C(Cn1nc(C(F)F)c2c1C(F)(F)CCC2(F)F)N[C@@H](Cc1cc(F)cc(F)c1)c1nc(C#Cc2ccc3[nH]c(=O)ccc3c2)ccc1-c1cnc2[nH]ccc2c1", "note": "[Compound 5, (S)-2-(3-(difluoromethyl)-4,4,7,7-tetrafluoro-4,5,6,7-tetrahydro-1H-indazol-1-yl)-N-(2-(3,5-difluorophenyl)-1-(6-((2-oxo-1,2-dihydroquinolin-6-yl)ethynyl)-3-(1H-pyrrolo[2,3-b]pyridin-5-yl)pyridin-2-yl)ethyl)acetamide]", "values": [{"measurement": "inhibition at 0.2 µM", "setting": "[1]; [3]", "result": 5, "unit": "%"}, {"measurement": "CC50 at 5 days", "setting": "[2]", "result": "> 53.2", "unit": "µM"}]}
{"smiles": "O=C(Cn1nc(C(F)F)c2c1C(F)(F)CCC2(F)F)N[C@@H](Cc1cc(F)cc(F)c1)c1nc(C#Cc2cncnc2)ccc1-c1ccc2c(c1)C(=O)NC21CC1", "note": "[Compound 6, (S)-2-(3-(difluoromethyl)-4,4,7,7-tetrafluoro-4,5,6,7-tetrahydro-1H-indazol-1-yl)-N-(2-(3,5-difluorophenyl)-1-(3-(3′-oxospiro[cyclopropane-1,1′-isoindolin]-5′-yl)-6-(pyrimidin-5-ylethynyl)pyridin-2-yl)ethyl)acetamide]", "values": [{"measurement": "inhibition at 0.2 µM", "setting": "[1]; [3]", "result": 0, "unit": "%"}, {"measurement": "CC50 at 5 days", "setting": "[2]", "result": 1.66, "unit": "µM"}]}
{"smiles": "O=C(Cn1nc(C(F)F)c2c1C(F)(F)CCC2(F)F)N[C@@H](Cc1cc(F)cc(F)c1)c1nc(C#Cc2cncnc2)ncc1-c1ccc2c(c1)C(=O)NC2", "note": "[Compound 7H]", "values": [{"measurement": "inhibition at 0.2 µM", "setting": "[1]; [6]", "result": 94, "unit": "%"}, {"measurement": "CC50 at 5 days", "setting": "[2]", "result": 0.534, "unit": "µM"}]}
{"smiles": "O=C(Cn1nc(C(F)F)c2c1C(F)(F)CCC2(F)F)N[C@@H](Cc1cc(F)cc(F)c1)c1nc(C#Cc2ccccc2)ncc1-c1ccc2c(c1)C(=O)NC2", "note": "[Compound 8, (S)-2-(3-(difluoromethyl)-4,4,7,7-tetrafluoro-4,5,6,7-tetrahydro-1H-indazol-1-yl)-N-(2-(3,5-difluorophenyl)-1-(5-(3-oxoisoindolin-5-yl)-2-(phenylethynyl)pyrimidin-4-yl)ethyl)acetamide]", "values": [{"measurement": "inhibition at 0.2 µM", "setting": "[1]; [6]", "result": 102, "unit": "%"}, {"measurement": "CC50 at 5 days", "setting": "[2]", "result": "> 53.2", "unit": "µM"}]}
{"smiles": "N#Cc1ccc(C#Cc2ccc(-c3ccc4c(c3)C(=O)NC4)c([C@H](Cc3cc(F)cc(F)c3)NC(=O)Cn3nc(C(F)(F)F)c4c3C(F)(F)[C@@H]3C[C@H]43)n2)cc1", "note": "[Compound 9, N—((S)-1-(6-((4-cyanophenyl)ethynyl)-3-(3-oxoisoindolin-5-yl)pyridin-2-yl)-2-(3,5-difluorophenyl)ethyl)-2-((3bS,4aR)-5,5-difluoro-3-(trifluromethyl)-3b,4,4a,5-tetrahydro-1H-cyclopropa[3,4]cyclopenta[1,2-c]pyrazol-1-yl)acetamide]", "values": [{"measurement": "inhibition at 0.2 µM", "setting": "[1]; [3]", "result": 25, "unit": "%"}, {"measurement": "CC50 at 5 days", "setting": "[2]", "result": "> 53.2", "unit": "µM"}]}
{"smiles": "COc1ccc(C#Cc2ccc(-c3ccc4c(c3)C(=O)NC4)c([C@H](Cc3cc(F)cc(F)c3)NC(=O)Cn3nc(C(F)(F)F)c4c3C(F)(F)[C@@H]3C[C@H]43)n2)cn1", "note": "[Compound 10C, 2-((3bS,4aR)-5,5-difluoro-3-(trifluoromethyl)-3b,4,4a,5-tetrahydro-1H-cyclopropa[3,4]cyclopenta[1,2-c]pyrazol-1-yl)-N—((S)-2-(3,5-difluorophenyl)-1-(6-((6-methoxypyridin-3-yl)ethynyl)-3-(3-oxoisoindolin-5-yl)pyridin-2-yl)ethyl)acetamide]", "values": [{"measurement": "inhibition at 0.2 µM", "setting": "[1]; [3]", "result": 21, "unit": "%"}, {"measurement": "CC50 at 5 days", "setting": "[2]", "result": "> 51.9", "unit": "µM"}]}
{"smiles": "Cc1cc(C#Cc2ncc(-c3ccc4c(c3)C(=O)NC4)c([C@H](Cc3cc(F)cc(F)c3)NC(=O)Cn3nc(C(F)F)c4c3C(F)(F)CCC4(F)F)n2)ccn1", "note": "[Compound 11, (S)-2-(3-(difluoromethyl)-4,4,7,7-tetrafluoro-4,5,6,7-tetrahydro-1H-indazol-1-yl)-N-(2-(3,5-difluorophenyl)-1-(2-((2-methylpyridin-4-yl)ethynyl)-5-(3-oxoisoindolin-5-yl)pyrimidin-4-yl)ethyl)acetamide]", "values": [{"measurement": "inhibition at 0.2 µM", "setting": "[1]; [3]", "result": 69, "unit": "%"}, {"measurement": "CC50 at 5 days", "setting": "[2]", "result": 0.761, "unit": "µM"}]}
{"smiles": "O=C(Cn1nc(C(F)(F)F)c2c1C(F)(F)[C@@H]1C[C@H]21)N[C@@H](Cc1cc(F)cc(F)c1)c1nc(C#Cc2ccc(=O)[nH]c2)ccc1-c1ccc2c(c1)C(=O)NC2", "note": "[Compound 12, 2-((3bS,4aR)-5,5-difluoro-3-(trifluoromethyl)-3b,4,4a,5-tetrahydro-1H-cyclopropa[3,4]cyclopenta[1,2-c]pyrazol-1-yl)-N—((S)-2-(3,5-difluorophenyl)-1-(6-((6-oxo-1,6-dihydropyridin-3-yl)ethynyl)-3-(3-oxoisoindolin-5-yl)pyridin-2-yl)ethyl)acetamide]", "values": [{"measurement": "inhibition at 0.2 µM", "setting": "[1]; [3]", "result": 70, "unit": "%"}, {"measurement": "CC50 at 5 days", "setting": "[2]", "result": 7.7, "unit": "µM"}]}
{"smiles": "CC(C)(C)OC(=O)N1CCCC1c1ncc(C#Cc2ccc(-c3ccc4c(c3)C(=O)NC4)c([C@H](Cc3cc(F)cc(F)c3)NC(=O)Cn3nc(C(F)(F)F)c4c3C(F)(F)[C@@H]3C[C@H]43)n2)[nH]1", "note": "(stereo partly drawn) [Compound 13C, tert-butyl 2-(5-((6-((S)-1-(2-((3bS,4aR)-5,5-difluoro-3-(trifluoromethyl)-3b,4,4a,5-tetrahydro-1H-cyclopropa[3,4]cyclopenta[1,2-c]pyrazol-1-yl)acetamido)-2-(3,5-difluorophenyl)ethyl)-5-(3-oxoisoindolin-5-yl)pyridin-2-yl)ethynyl)-1H-imidazol-2-yl)pyrrolidine-1-carboxylate]", "values": [{"measurement": "inhibition at 0.2 µM", "setting": "[1]; [3]", "result": 87, "unit": "%"}, {"measurement": "CC50 at 5 days", "setting": "[2]", "result": "> 53.2", "unit": "µM"}]}
{"smiles": "CN(C)c1ccc(C#Cc2ccc(-c3ccc4c(c3)C(=O)NC4)c([C@H](Cc3cc(F)cc(F)c3)NC(=O)Cn3nc(C(F)(F)F)c4c3C(F)(F)[C@@H]3C[C@H]43)n2)cc1", "note": "[Compound 14, 2-((3bS,4aR)-5,5-difluoro-3-(trifluoromethyl)-3b,4,4a,5-tetrahydro-1H-cyclopropa[3,4]cyclopenta[1,2-c]pyrazol-1-yl)-N—((S)-2-(3,5-difluorophenyl)-1-(6-((4-(dimethylamino)phenyl)ethynyl)-3-(3-oxoisoindolin-5-yl)pyridin-2-yl)ethyl)acetamide]", "values": [{"measurement": "inhibition at 0.2 µM", "setting": "[1]; [3]", "result": 1, "unit": "%"}, {"measurement": "CC50 at 5 days", "setting": "[2]", "result": "> 53.2", "unit": "µM"}]}
{"smiles": "CC(C)(O)C#Cc1ccc(-c2ccc(F)c(C(N)=O)c2)c([C@H](Cc2cc(F)cc(F)c2)NC(=O)Cn2nc(C(F)(F)F)c3c2C(F)(F)[C@@H]2C[C@H]32)n1", "note": "[Compound 18, reference compound]", "values": [{"measurement": "inhibition at 0.2 µM", "setting": "[1]; [4]", "result": 96, "unit": "%"}, {"measurement": "inhibition at 2 µM", "setting": "[1]; [5]", "result": 96, "unit": "%"}]}
{"smiles": "O=C(Cc1c[nH]c2ccc(O)cc12)N[C@@H](Cc1cc(F)cc(F)c1)c1ncccc1C#CC1CC1", "note": "[Compound 53, reference compound]", "values": [{"measurement": "inhibition at 0.2 µM", "setting": "[1]; [4]", "result": 0, "unit": "%"}, {"measurement": "inhibition at 2 µM", "setting": "[1]; [5]", "result": 33, "unit": "%"}]}
{"smiles": "Cn1nc(NS(C)(=O)=O)c2c(Cl)ccc(-c3ccc(C#CC4(O)CC(F)(F)C4)nc3[C@H](Cc3cc(F)cc(F)c3)NC(=O)Cn3nc(C(F)F)c4c3C(F)(F)[C@@H]3C[C@H]43)c21", "note": "[Compound 95E, N—((S)-1-(3-(4-chloro-1-methyl-3-(methylsulfonamido)-1H-indazol-7-yl)-6-((3,3-difluoro-1-hydroxycyclobutyl)ethynyl)pyridin-2-yl)-2-(3,5-difluorophenyl)ethyl)-2-((3bS,4aR)-3-(difluoromethyl)-5,5-difluoro-3b,4,4a,5-tetrahydro-1H-cyclopropa[3,4]cyclopenta[1,2-c]pyrazol-1-yl)acetamide]", "values": [{"measurement": "inhibition at 0.2 µM", "setting": "[1]; [6]", "result": 96, "unit": "%"}]}
